Measured values as given in PubChem BioAssay AID624129 (Sanford-Burnham Center for Chemical Genomics, 2012).
Calls of active or inactive are those of the source. No rule for the calls is given here.

Biological target: C-X-C chemokine receptor type 6 (Homo sapiens) (UniProt O00574)
Assay: potency against CXCR6 with APJ panel – cell-based, beta-arrestin, DiscoveRx, uHTS hits, dose response (AID 624129)
Conditions: CXCR6 beta-arrestin (DiscoveRx) antagonist cell assay; for outcome: CXCR6, dose range 1; for inhibition: CXCR6, run 2, dose range 1, at 79 µM (top of the series)
[1] = CXCR6, dose range 1, mean IC50 across replicates

Chain of C-X-C chemokine receptor type 6 (Homo sapiens) (O00574 whole entry, looked up): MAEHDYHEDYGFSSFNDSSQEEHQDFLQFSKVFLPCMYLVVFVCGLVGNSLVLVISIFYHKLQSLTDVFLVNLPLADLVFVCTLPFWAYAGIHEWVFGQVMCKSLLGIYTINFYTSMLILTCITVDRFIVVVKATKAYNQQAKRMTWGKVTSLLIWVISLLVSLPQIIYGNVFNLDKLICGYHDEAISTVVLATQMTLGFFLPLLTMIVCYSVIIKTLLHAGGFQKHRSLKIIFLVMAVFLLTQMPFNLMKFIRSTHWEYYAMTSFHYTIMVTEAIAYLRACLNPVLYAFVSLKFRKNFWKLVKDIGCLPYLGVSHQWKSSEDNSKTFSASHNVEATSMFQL

Row | SMILES | outcome | IC50 [1] | IC50 (CXCR6, run 1, dose range 2) | inhibition | IC50 (CXCR6, run 2, dose range 2)
1 | O=C(NCc1cccnc1)/C(=C\c1ccc(-c2cccc(Cl)c2)o1)S(=O)(=O)c1ccccc1 | inactive | 13.8 µM | 11.9 µM | 88.9% | 15.7 µM
2 | C=C1C(=O)[C@]23C[C@H]1CCC2[C@@]1(C)C(C[C@@H]3O)[C@](C)(C(=O)OC)CC[C@@H]1O (stereo not given in full) | inactive | 11.5 µM | 11.6 µM | 109% | 11.4 µM
3 | CCOC(=O)C1CCCN(c2c(C(=O)c3ccccc3)cnc3ccc(OC)cc23)C1 (stereo not given) | inactive | 14.4 µM | 17.9 µM | 99.5% | 10.9 µM
4 | O=C(Nc1ccccc1)c1ccc(Nc2c([N+](=O)[O-])cc([N+](=O)[O-])c3ccccc23)cc1 | inactive | 44.4 µM | 65.1 µM | 98.6% | 23.6 µM
5 | COc1ccc(C(=O)N/N=C/c2cccc3cccnc23)cc1 | inactive | 13.5 µM | 12.6 µM | 60.1% | 14.5 µM
6 | COc1cc(/C=C/[N+](=O)[O-])ccc1OC(=O)c1cc2ccccc2oc1=O | inactive | 11.6 µM | 12.1 µM | 112% | 11.2 µM
7 | CC(=O)N1N=C(c2cccs2)CC1c1cccc([N+](=O)[O-])c1 (stereo not given) | inactive | 23.2 µM | 20.8 µM | 73.7% | 25.5 µM
8 | Cc1c(N=Nc2c(O)[nH]c(=S)[nH]c2=O)c(=O)n(-c2ccccc2)n1C | inactive | 22.5 µM | 16.4 µM | 107% | 28.6 µM
9 | O=C(C#Cc1cccc([N+](=O)[O-])c1)c1ccccc1 | inactive | 13.5 µM | 12.6 µM | 108% | 14.4 µM
10 | Cc1cc(O)ccc1NC(=S)NC(=O)c1cncc(Br)c1 | inactive | 16.3 µM | 17.3 µM | 68.1% | 15.4 µM
11 | Cc1ccc(S(=O)(=O)c2ccc([N+](=O)[O-])cn2)cc1 | inactive | 11.7 µM | 11.5 µM | 109% | 11.9 µM
12 | CCCC(=O)OCCNc1cc(SCCC(=O)OC)c2nonc2c1[N+](=O)[O-] | inactive | 22 µM | 23.6 µM | 108% | 20.3 µM
13 | Cc1ccccc1CS(=O)(=O)c1nnc([C@H](Cc2ccccc2)NC(=O)OC(C)(C)C)o1 | inactive | 15.9 µM | 16 µM | 110% | 15.7 µM
14 | O=C(Nc1ccccc1)c1nnsc1S(=O)c1ccc(Cl)cc1 (stereo not given) | inactive | 11.5 µM | 11.9 µM | 111% | 11.2 µM
15 | COC(=O)c1ccc(NC(=O)c2nc(S(=O)(=O)Cc3cccc(C)c3)ncc2Cl)cc1 | inactive | 16.3 µM | 15.4 µM | 107% | 17.2 µM
16 | CCN(CC)CCn1c(N)c(S(=O)(=O)c2ccccc2)c2nc3ccccc3nc21 | inactive | 15.9 µM | 13.2 µM | 99.2% | 18.5 µM
17 | CCOC(=O)CS(=O)(=O)c1nc(-c2ccccc2)cc(C(F)(F)F)n1 | inactive | 18.9 µM | 17.7 µM | 108% | 20.2 µM
18 | CC(=O)NS(=O)(=O)c1ccc(Nc2ccc([N+](=O)[O-])c3nonc23)cc1 | inactive | 46.6 µM | 35.6 µM | 85.9% | 57.6 µM

Row | SMILES | outcome | IC50 [1] | IC50 (CXCR6, run 1, dose range 2) | inhibition | IC50 (CXCR6, run 2, dose range 2)
19 | Cc1cccc(CS(=O)(=O)c2ncc(Cl)c(C(=O)NCc3ccccc3)n2)c1 | inactive | 13.1 µM | 11.5 µM | 112% | 14.7 µM
20 | CN(C)/C=C/c1oc2ccc(O)cc2c1[N+](=O)[O-] | inactive | 17.5 µM | 18.5 µM | 93.1% | 16.4 µM
21 | CN(CC(=O)Nc1cc(S(=O)(=O)N2CCCC2)ccc1Cl)Cc1cccs1 | inactive | 11.5 µM | 11.4 µM | 78.8% | 11.6 µM
22 | CC(O)CN(CC(C)O)c1ccc2c(c1)Cc1cc([N+](=O)[O-])ccc1-2 (stereo not given) | inactive | 21.4 µM | 20.1 µM | 76% | 22.7 µM
23 | Cc1cccc(NC(=S)N/N=C/c2ccc([N+](=O)[O-])s2)c1 | inactive | 12.4 µM | 9.56 µM | 87.7% | 15.2 µM
24 | O=C(N/N=C/c1ccc([N+](=O)[O-])o1)c1sc2ccccc2c1Cl | inactive | 19.5 µM | 19.2 µM | 97% | 19.9 µM
25 | CCCNC(=O)c1nnsc1S(=O)c1ccc(Cl)cc1 (stereo not given) | inactive | 11.7 µM | 11.8 µM | 112% | 11.7 µM
26 | O=C1c2cccc3c([N+](=O)[O-])ccc(c23)C(=O)N1c1ccccn1 | inactive | 24.3 µM | 24.3 µM | 101% | 24.2 µM
27 | Fc1ccc(NC(=S)NNc2ncc(C(F)(F)F)cc2Cl)c(F)c1 | inactive | 11.6 µM | 11.2 µM | 109% | 12 µM
28 | CC1=C(O)C(=O)C=C2C1=CC=C1C2(C)CCC2(C)C3CC(C)(C(=O)O)CCC3(C)CCC12C (stereo not given) | inactive | 19.3 µM | 16.7 µM | 113% | 21.9 µM
29 | CC(Oc1ccccc1)C(=O)Nc1nc(-c2ccccn2)cs1 (stereo not given) | inactive | 14.3 µM | 11.4 µM | 97.6% | 17.3 µM
30 | COc1ccc(-n2nnnc2S(=O)(=O)CC(=O)N2CCCCC2)cc1 | inactive | 19 µM | 19.3 µM | 97.5% | 18.8 µM
31 | COc1cc(/C=C/[N+](=O)[O-])ccc1OC(=O)c1cccnc1 | inactive | 25.5 µM | 19.1 µM | 108% | 31.9 µM
32 | CCOC(=O)c1cc([N+](=O)[O-])c([N+](=O)[O-])cc1NC(C)=O | inactive | 15.1 µM | 14.8 µM | 110% | 15.5 µM
33 | Cc1ccc(NC(=O)c2nc(S(=O)(=O)Cc3ccccc3)ncc2Cl)cc1 | inactive | 15.3 µM | 15.2 µM | 111% | 15.5 µM
34 | CCCCC(=O)NC(=S)NNC(=O)c1ccc(OC)cc1 | inactive | 11.5 µM | 10.2 µM | 98% | 12.9 µM
35 | O=C1C=CC(=O)N1c1ccc(N2CCCCC2)cc1 | inactive | 18.3 µM | 17.5 µM | 113% | 19.1 µM
36 | CCOc1cc(/C=C2\N=C(SCC)SC2=O)cc([N+](=O)[O-])c1OC(C)=O | inactive | 39.3 µM | 23.8 µM | 95.5% | 54.8 µM
